# Data published in PMC9246256, “Structure-based optimization of type III indoleamine 2,3-dioxygenase 1 (IDO1) inhibitors” (Journal of Enzyme Inhibition and Medicinal Chemistry, 2022).
# pIC50: −log10 of the molar value. Where “and” joins values, the source holds several entries; their conditions need not be identical. Equal entries are not always repeated. Where two headings read alike, the source gives them in different places.
# Columns and labels:
# hIDO1 [1] = target: T1, hIDO1 (Homo sapiens, UniProt P14902); details: previously determined, cited from earlier work; for Inh. [%]: 200 µM; for IC50: read-out: IC50 [µM] (cellular)
# T1 construct: The full ORF of hIDO1 was cloned into the mammalian expression vector pcDNA6/myc-His; myc-His (vector-encoded); host or cells: HEK 293 T
# T1 sequence (P14902 whole entry): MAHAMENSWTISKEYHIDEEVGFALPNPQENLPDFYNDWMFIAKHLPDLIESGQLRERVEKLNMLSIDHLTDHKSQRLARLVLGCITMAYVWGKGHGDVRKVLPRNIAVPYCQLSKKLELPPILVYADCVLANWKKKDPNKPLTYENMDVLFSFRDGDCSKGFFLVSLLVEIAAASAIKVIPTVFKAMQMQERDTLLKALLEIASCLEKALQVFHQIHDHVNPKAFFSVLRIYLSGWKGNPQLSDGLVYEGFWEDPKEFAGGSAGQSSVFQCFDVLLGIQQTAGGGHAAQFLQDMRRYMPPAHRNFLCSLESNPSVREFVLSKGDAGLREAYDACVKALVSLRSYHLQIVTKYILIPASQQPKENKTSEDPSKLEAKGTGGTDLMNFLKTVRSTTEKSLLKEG
# HEK 293 T cells [2] = details: previously determined, 200 µM, cited from earlier work
# [3] = target: T2, purified recombinant IDO1 (Homo sapiens, UniProt P14902); assay: Enzymatic IDO1 inhibition assay (ascorbate/methylene blue reduction system, HPLC detection of kynurenine); type: biochemical; details: for LE [kcal/mol/HA]: ligand efficiency, LE = -RT log(IC50)/number of heavy atoms, from enzymatic IC50; for pIC50: enzymatic, L-Trp 100 µM, 0.01% Triton X-100, 5% DMSO, 20 min at room temperature, pH 6.5, duplicates, read-out: IC50 [ μ M] (SD)
# T2 construct: Full-length human IDO1 gene was cloned into the pET-28a vector; inferred from pET-28a vector and HisTrap purification; made in house; host or cells: E. coli Rosetta (DE3)
# T2 sequence (P14902 whole entry): as above
# HEK 293 T cells [4] = assay: Cell viability / cellular toxicity (DAPI staining, cytometry); type: cell-based, human; details: compound 200 µM, 7 h
# Description: (§1) We tested the cellular hIDO1 inhibitory activity and toxicity of 30 active compounds at a single concentration (Figure 6 and Table 8). As some of the aniline derivatives reacted with Ehrlich’s reagent (p-dimethylaminobenzaldehyde, p-DMAB) used to quantify kynurenine, the kynurenine content of these samples was determined by HPLC. To be able to detect also weak inhibition, compounds were tested at the high concentration of 200 µM (Figure 6A and B, filled bars), except for less soluble compounds (52, 148, 149 and 153), which were tested at a concentration of 50 µM (Figure 6A and B, empty bars).
# Following DMSO (negative control) or inhibitor treatments, apoptotic cells were detected by 4′,6-diamidino-2-phenylindole (DAPI) staining. Briefly, after 7 h of incubation, cells were washed with PBS, resuspended in PBS with 1 µg/mL DAPI and immediately analysed using a BD LSR II cytometer. A 405 nm laser with 450/50 nm bandpass filter was used to collect data.
# hIDO1 [5] = target: T1, hIDO1; assay: Cellular hIDO1 inhibition (kynurenine production) in transiently transfected HEK 293 T cells; type: cell-based
# Description: as §1
# The cDNA encoding hIDO1 (NCBI, NM 0021464.3) was purchased from Origene as pCMV6-Entry vector (RC206592). The full ORF of hIDO1 was cloned into the mammalian expression vector pcDNA6/myc-His from Invitrogen. Human embryonic kidney 293 T (HEK 293 T) cells were transiently transfected with the plasmid construct encoding hIDO1. A 75 cm^2 flask containing HEK 293 T cells at a confluency of 70% was transfected with jetPEI DNA transfection reagent (Polyplus-transfection), according to manufacturer’s protocol. A total of 20 µg of pcDNA-IDO1 along with 5 µg of pcDNA-GFP plasmid were used for the transfection; GFP was used to evaluate transfection efficiency prior to the cellular assays. 16–18 h post-transfection the 293 T cells were detached with trypsin, centrifuged, and re-suspended in 25 mL of DMEM medium without phenol red, supplemented with penicillin and streptomycin, 10% foetal bovine serum and 1 mM pyruvate (Gibco). Subsequently, 100 µL of cells were distributed to each well of two 96-well round-bottom plates that had been pre-loaded with 100 µL DMEM and the small organic test molecule in DMSO (for a final DMSO concentration of 2%). DMEM medium contains 78 µM L-Trp and was supplemented with 500 µM of L-Trp. Cells transfected with hIDO1 were incubated for 7 h at 37 °C in a CO2 incubator. The reaction was stopped in its linear phase by adding trichloroacetic acid (TCA) to the medium at a final concentration of 4%. Plates were centrifuged for 15 min at 4,000 rpm. 100 µL of supernatant was added to 100 µL of 2% (w/v) DMAB in glacial acetic acid. After 10 min the absorbance was measured at a wavelength of 480 nm to detect kynurenine formation. Alternatively, kynurenine content was determined by HPLC as done for the enzymatic assay.
# [6] = ref 1 of Supporting Information (Röhrig et al. 2021)
Structure (SMILES),LE [kcal/mol/HA] [3] [kcal/mol/HA],melting point [°C],pIC50 [3],other results
"Nc1ccccc1-c1nnc[nH]1 [Compound 139, 3–(2-aminophenyl)-1,2,4-triazole]",0.65,,,Inh. [%] (hIDO1 [1]; [6]): 100%; IC50 (hIDO1 [1]; [6]): 4.6 µM; Tox. [%] (HEK 293 T cells [2]; [6]): 0%
"CNc1ccc(Cl)cc1-c1nc[nH]n1 [Compound 145, 4-Chloro-N-methyl-2-(1H-1,2,4-triazol-3-yl)aniline]",0.49,207 to 209,5.07 and 5.06,Tox. [%] (HEK 293 T cells [4]): 0 (0) %; inhibition at 200 µM (hIDO1 [5]): 93%
"Cc1c(Cl)ccc(N)c1-c1nc[nH]n1 [Compound 156, 4-Chloro-3-methyl-2-(1H-1,2,4-triazol-3-yl)aniline]",0.39,208 to 210,4.05,
c1ccc(-c2nnc[nH]2)cc1 [Compound 133],,,,Inh. [%] (hIDO1 [1]; [6]): 0%; Tox. [%] (HEK 293 T cells [2]; [6]): 0%
Oc1ccccc1-c1cnn[nH]1 [Compound 29],0.64,,,Inh. [%] (hIDO1 [1]; [6]): 95%; Tox. [%] (HEK 293 T cells [2]; [6]): 0%
"O=C(c1ccncc1)c1cnn[nH]1 [Compound 122, Pyridin-4-yl(1H-1,2,3-triazol-5-yl)methanone]",,221 to 223,2.92,
"CCc1ccc(O)c(-c2cnn[nH]2)c1 [Compound 36, 4-Ethyl-2-(1H-1,2,3-triazol-5-yl)phenol]",0.64,71 to 73,6.60,
Clc1cccc(-c2nnc[nH]2)c1 [Compound 136],0.51,,,Inh. [%] (hIDO1 [1]; [6]): 78%; Tox. [%] (HEK 293 T cells [2]; [6]): 0%
"O=C(c1cnn[nH]1)c1ccc(Br)cc1O [Compound 113, (4-Bromo-2-hydroxyphenyl)(1H-1,2,3-triazol-5-yl)methanone]",0.46,192 to 194,5.09,Tox. [%] (HEK 293 T cells [4]): 0 (0) %; inhibition at 200 µM (hIDO1 [5]): 36%
Nc1ccc(Cl)cc1-c1nnc[nH]1 [Compound 11],0.78,,,Inh. [%] (hIDO1 [1]; [6]): 100%; Tox. [%] (HEK 293 T cells [2]; [6]): 0%
"Clc1cc(Cl)c(-c2c[nH]nn2)c(Cl)c1 [Compound 53, 4–(2,4,6-Trichlorophenyl)-1,2,3-triazole]",,236 to 238,< 3.30,
"CCC(=O)Nc1ccc(Cl)cc1-c1nc[nH]n1 [Compound 147, N-(4-Chloro-2-(1H-1,2,4-triazol-3-yl)phenyl)propionamide]",0.47,168 to 171,5.92,Tox. [%] (HEK 293 T cells [4]): 16 (1) %; inhibition at 200 µM (hIDO1 [5]): 100%
"Clc1cccc(-c2c[nH]nn2)c1OCCc1ccccc1 [Compound 43, 4–(3-Chloro-2-phenethoxyphenyl)-1,2,3-triazole]",0.29,96 to 99,4.51,
"Oc1ccc(F)cc1-c1cnn[nH]1 [Compound 34, 4-Fluoro-2-(1H-1,2,3-triazol-5-yl)phenol]",0.72,186 to 188,6.85,
"Clc1ccc(-c2c[nH]nn2)c(Cl)c1 [Compound 48, 4–(2,4-Dichlorophenyl)-1,2,3-triazole]",0.47,,4.51,Tox. [%] (HEK 293 T cells [4]): 0 (0) %; inhibition at 200 µM (hIDO1 [5]): 63%
c1ccc(-c2cnn[nH]2)cc1 [Compound 19],,,,Inh. [%] (hIDO1 [1]; [6]): 93%; Tox. [%] (HEK 293 T cells [2]; [6]): 3%
"Nc1c(Cl)cccc1-c1nc[nH]n1 [Compound 141, 2-Chloro-6-(1H-1,2,4-triazol-3-yl)aniline]",0.48,,4.54,Tox. [%] (HEK 293 T cells [4]): 13 (4) %; inhibition at 200 µM (hIDO1 [5]): 82%
"O=C(c1ccccn1)c1cnn[nH]1 [Compound 120, Pyridin-2-yl(1H-1,2,3-triazol-5-yl)methanone]",,161 to 163,< 3.00,

# Second part, led by results:
LE [kcal/mol/HA] [3] [kcal/mol/HA],melting point [°C],pIC50 [3],Structure (SMILES),other results
,129 to 132,< 3.60,c1ccc(CCNc2ccccc2-c2cnn[nH]2)cc1 [Compound 28],
0.36,149 to 151,3.66,"Cc1[nH]nnc1-c1cc(Cl)ccc1O [Compound 68, 4-Chloro-2–(5-methyl-1,2,3-triazol-4-yl)phenol]",
0.51,257 to 259,4.89,"Oc1cccc(O)c1-c1cnn[nH]1 [Compound 44, 2-(1H-1,2,3-triazol-5-yl)benzene-1,3-diol]",
0.66,160 to 162,6.26,"Cc1ccc(O)c(-c2cnn[nH]2)c1 [Compound 35, 4-Methyl-2-(1H-1,2,3-triazol-5-yl)phenol]",
0.31,186 to 188,3.44 and 3.43,"O=C(c1cnn[nH]1)c1cc(Cl)ccc1O [Compound 111, (5-Chloro-2-hydroxyphenyl)(1H-1,2,3-triazol-5-yl)methanone]",Tox. [%] (HEK 293 T cells [4]): 0 (0) %; inhibition at 200 µM (hIDO1 [5]): 20%
0.33,,4.85,Clc1cccc(-c2cnn[nH]2)c1CCc1ccccc1 [Compound 13],"Inh. [%] (hIDO1 [1]; ref 3 of Supporting Information (Röhrig et al. 2016)): 76%; Tox. [%] (HEK 293 T cells [2]; ref 3 of Supporting Information (= main text ref 62)): 71%; Tox. [%] (HEK 293 T cells [2]; ref 3 of Supporting Information (= main text ref 62), listed as MMG-0472): 70%"
,153 to 155,< 3.30,"OC(COc1ccccc1-c1cnn[nH]1)c1ccccc1 (stereo not shown) [Compound 27, 2–(2-(1H-1,2,3-triazol-5-yl)phenoxy)-1-phenylethan-1-ol]",
,91 to 93,< 4.00,"c1ccc(CCOc2ccccc2-c2c[nH]nn2)cc1 [Compound 26, 4–(2-Phenethoxyphenyl)-1,2,3-triazole]",
0.37,170 to 172,3.29,"O=C(c1csnn1)c1cnn[nH]1 [Compound 119, (1,2,3-Thiadiazol-4-yl)(1H-1,2,3-triazol-5-yl)methanone]",Tox. [%] (HEK 293 T cells [4]): 0 (0) %; inhibition at 200 µM (hIDO1 [5]): 4.8%
0.29,148 to 151,4.06,"Oc1ccc(Cc2ccccc2)cc1-c1cnn[nH]1 [Compound 38, 4-Benzyl-2-(1H-1,2,3-triazol-5-yl)phenol]",
0.55,212 to 214,6.00,"Nc1ccc(Cl)c(N)c1-c1nc[nH]n1 [Compound 157, 4-Chloro-2-(1H-1,2,4-triazol-3-yl)benzene-1,3-diamine]",
0.49,,,Clc1cccc(-c2cnn[nH]2)c1Cl [Compound 47],IC50 (hIDO1 [1]; ref 4 of Supporting Information (Röhrig et al. 2012)): > 100 µM
0.56,138 to 140,6.12,"CCCc1ccc(O)c(-c2cnn[nH]2)c1 [Compound 37, 4-Propyl-2-(1H-1,2,3-triazol-5-yl)phenol]",
0.54,,4.77,"O=C(c1cnn[nH]1)c1cccs1 [Compound 116, Thiophen-2-yl(1H-1,2,3-triazol-5-yl)methanone]",Tox. [%] (HEK 293 T cells [4]): 0 (0) %; inhibition at 200 µM (hIDO1 [5]): 62%
